The values below come from PubChem BioAssay (NCI).

“And” between values parts separate entries of the source, which are not always exact repeats. Equal entries are not always repeated.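 Briefly, cells in 96-well plates were exposed to five compound concentrations for 48 h, and endpoints were estimated by linear interpolation. GI50 = concentration required for 50% inhibition of growth. At the TGI there is no net growth.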

Test systems include HCT-116 colon; OVCAR-8 ovarian; MDA-MB-435; UACC-62 melanoma; MALME-3M melanoma; M14 melanoma; T-47D breast; NCI-H23 lung; SF-268 CNS; HS 578T breast.
Holding throughout (assay): NCI-60 cell line screen, 48 h

Regarding `CC1=CC(C)=NN=C(N)N1S(=O)(=O)c1cc(C)c(Cl)cc1SCc1ccccc1`, the GI50 is 7.2 µM in the experiment with HCT-116 colon; 56.6 µM with OVCAR-8 ovarian; 21.3 µM in the experiment with MDA-MB-435; 12.4 µM in the experiment on UACC-62 melanoma; 49.1 µM with MALME-3M melanoma; 21.4 µM with M14 melanoma. The GI50 in the experiment on T-47D breast is 4.21 µM; with NCI-H23 lung it was 14.2 µM; in the experiment on SF-268 CNS, 35.1 µM; in the experiment on HS 578T breast it was more than 100 µM. Also, the TGI with HCT-116 colon, with OVCAR-8 ovarian, in the experiment with MDA-MB-435, in the experiment with UACC-62 melanoma, in the experiment on MALME-3M melanoma and in the experiment with M14 melanoma was more than 100 µM throughout. Moreover, the TGI in the experiment on T-47D breast is 79.1 µM; with NCI-H23 lung, more than 100 µM; in the experiment on SF-268 CNS it was more than 100 µM; with HS 578T breast, more than 100 µM.

Consider `Oc1ccc(Nc2ccc3ccccc3c2)cc1`, for which the GI50 was 9.23 µM in the experiment on HCT-116 colon; 6.49 µM with OVCAR-8 ovarian; 3.27 µM in the experiment with MDA-MB-435; 3.96 µM in the experiment with UACC-62 melanoma; 3.45 µM in the experiment with MALME-3M melanoma; 5.01 µM with M14 melanoma. The GI50 was 7.1 µM in the experiment on T-47D breast, 10.9 µM with NCI-H23 lung, 4.94 µM with SF-268 CNS and 12.1 µM in the experiment on HS 578T breast. In addition, the TGI in the experiment with HCT-116 colon is 24 µM; with OVCAR-8 ovarian, 56.7 µM; in the experiment with MDA-MB-435 it was 14 µM; with UACC-62 melanoma, 18 µM; in the experiment with MALME-3M melanoma, 13.4 µM; with M14 melanoma, 23.4 µM. Besides, the TGI was 25.7 µM with T-47D breast, 55.3 µM with NCI-H23 lung, 29.4 µM in the experiment with SF-268 CNS and 57.1 µM with HS 578T breast.

As to `CCN(CC)CCCC(C)Nc1ccnc2cc(Cl)ccc12` (configuration not stated), the GI50 in the experiment with HCT-116 colon was 25.6 µM; in the experiment on OVCAR-8 ovarian it was 57.5 µM; in the experiment with MDA-MB-435, 20.3 µM; in the experiment with UACC-62 melanoma, 37.6 µM; in the experiment on M14 melanoma it was 18.5 µM; with T-47D breast it was more than 100 µM. In addition, the GI50 with HS 578T breast is more than 100 µM. Further, the TGI is > 100 µM and 42 µM in the experiment on HCT-116 colon; more than 100 µM in the experiment with OVCAR-8 ovarian; 43.3 µM and 37.3 µM in the experiment on MDA-MB-435; more than 100 µM with UACC-62 melanoma; 48.7 µM and 35.7 µM with MALME-3M melanoma; 32.5 µM and 28.4 µM with M14 melanoma. Further, the TGI with T-47D breast was > 100 µM and 64.1 µM; with NCI-H23 lung it was more than 100 µM; in the experiment on SF-268 CNS, more than 100 µM; in the experiment with HS 578T breast, more than 100 µM.

With `CC(=O)OC1CCC2(C)C(CCC3C2CC(=O)C2(C)C3CC(N3CC3)C2C(C)=O)C1` (configuration not stated), the TGI with HCT-116 colon is more than 100 µM; in the experiment with OVCAR-8 ovarian, 46.7 µM; in the experiment on MDA-MB-435, 51.5 µM; in the experiment on UACC-62 melanoma, 36.5 µM; in the experiment with MALME-3M melanoma it was 36.5 µM; with M14 melanoma, 51.7 µM. Also, the TGI in the experiment with T-47D breast turned out to be 65.2 µM; with NCI-H23 lung it was 44.9 µM; in the experiment on SF-268 CNS it was 27.1 µM; in the experiment with HS 578T breast, 40.9 µM.

As to `CC/C=C\C[C@H](F)C/C=C1/C(=O)C=C[C@@H]1C/C=C\CCCC(=O)OC`, the GI50 is 0.88 µM in the experiment with HCT-116 colon; 2.05 µM in the experiment with OVCAR-8 ovarian; 1.25 µM with MDA-MB-435; 0.948 µM in the experiment with UACC-62 melanoma; 2.03 µM in the experiment on MALME-3M melanoma; 1.65 µM in the experiment on M14 melanoma. The GI50 in the experiment with T-47D breast is 1.42 µM; in the experiment with NCI-H23 lung, 2.16 µM; with SF-268 CNS, 1.86 µM; in the experiment with HS 578T breast, 3.51 µM. Moreover, the TGI in the experiment with HCT-116 colon was 1.79 µM; in the experiment on OVCAR-8 ovarian, 12.2 µM; in the experiment on MDA-MB-435, 3.37 µM; with UACC-62 melanoma, 2.1 µM; with MALME-3M melanoma it was 8.7 µM; in the experiment with M14 melanoma it was 5.8 µM. For the same molecule, the TGI with T-47D breast was 5.57 µM; in the experiment with NCI-H23 lung, 10.9 µM; in the experiment on SF-268 CNS, 7.23 µM; with HS 578T breast, 21 µM.

For `CC1CCN(Cc2ccc(NC(=O)c3cc4ccc5cccnc5c4[nH]3)cc2)CC1`, the GI50 in the experiment with HCT-116 colon is 4.18 µM; in the experiment on OVCAR-8 ovarian, 10.6 µM; with MDA-MB-435, 1.99 µM; in the experiment on UACC-62 melanoma, 2.17 µM; in the experiment with MALME-3M melanoma, 2.05 µM; in the experiment with M14 melanoma, 2.05 µM. Moreover, the GI50 with T-47D breast was 6.81 µM; in the experiment on NCI-H23 lung it was 14.4 µM; in the experiment on SF-268 CNS it was 7.07 µM; with HS 578T breast, 4.09 µM. For the same molecule, the TGI is 19.6 µM in the experiment on HCT-116 colon; 29.5 µM in the experiment on OVCAR-8 ovarian; 4.24 µM in the experiment on MDA-MB-435; 4.54 µM in the experiment with UACC-62 melanoma; 3.72 µM in the experiment on MALME-3M melanoma; 4.08 µM in the experiment on M14 melanoma. The TGI with T-47D breast came to 28.3 µM; in the experiment with NCI-H23 lung, 37.7 µM; in the experiment on SF-268 CNS, 40.9 µM; in the experiment on HS 578T breast, 28.3 µM.

With `Cn1c(=O)c(Oc2ccc(F)cc2F)cc2cnc(NC(C)(C)CO)nc21`, the GI50 with HCT-116 colon, with OVCAR-8 ovarian, in the experiment on MDA-MB-435, in the experiment on UACC-62 melanoma, with MALME-3M melanoma and with M14 melanoma was more than 25 µM each time. The GI50 was 13.7 µM in the experiment on T-47D breast, more than 25 µM with NCI-H23 lung, more than 25 µM with SF-268 CNS and more than 25 µM in the experiment on HS 578T breast. Besides, the TGI in the experiment on HCT-116 colon, in the experiment on OVCAR-8 ovarian, in the experiment on MDA-MB-435, in the experiment on UACC-62 melanoma, with MALME-3M melanoma and with M14 melanoma was more than 25 µM each time. Further, the TGI in the experiment with T-47D breast, with NCI-H23 lung, with SF-268 CNS and in the experiment on HS 578T breast was more than 25 µM throughout.
